Source: patent US20190137505A1 (THE ARIZONA BOARD OF REGENTS ON BEHALF OF THE UNIVERSITY OF …, priority 2015, published 2019)

Biological target: T1, plasminogen (Homo sapiens, UniProt P00747)
T1 construct: Glu-Pg, uPA, tPA, fibrinogen, and chromogenic substrate for Pn were purchased from Molecular Innovations (Novi, Mich.); purchased Molecular Innovations (Novi, Mich.)
Assay: LC-MS/MS identification of sites of MG adduction on plasminogen in vitro (Tables 1 and 12)
Details: 500 μM MG, 24 hr
Procedure: 10 μg Pg was incubated with MG (50-500 μM) in tris-buffered saline (TBS) for 24 hours at 37° C. Following modification, sample volumes were increased to 150 μL and placed in 5 kDa spin filters to reduce volume and remove excess MG from solution.
MG-modified (500 μM) and unmodified Pg control (same incubation conditions without MG) were added to 250 μL amount of rehydration buffer (6M urea, 2M thiourea, 2% CHAPS, 100 mM DTT, 0.5% 3-10 ampholytes) and 5 μL of 3-10 ampholytes (Bio-Rad). Sample rehydrated with a 13 cm 4-7 pH isoelectric focusing strip (GE Healthcare) overnight. Following rehydration, strips were placed in a Bio-Rad PROTEAN IEF Cell focusing instrument. Strips were first focused for 1 hour at 500 V, and then run at a maximum of 8,000V until the strips have reached a final total of 45,000 V/hrs at which point gels are held at 500V until removed. Focused strips were removed, reduced with DTT, cysteines carbamidomethylated with iodoacetamide, and run on a 4-20% gradient Criterion gel for 55 minutes at 200V. Gels were stained for stained according to manufacturer instructions with Imperial Blue Protein (ThermoScientific, Rockford, Ill.) and destained immediately with water. Gel bands were excised and trypsin digested.
Coomassie stained gel-bands were excised and washed in ddH2O for 15 min. H2O was removed and bands were incubated in 50/50 acetonitrile (ACN):ddH2O for 15 min. ACN:ddH2O was removed and bands were incubated with ACN for 5 min. ACN was removed and gels were incubated with 100 mM ammonium bicarbonate (AMBIC). An equal volume of ACN was added to make 1:1 solution and was incubated for 15 min. The ACN/AMBIC solution was removed and remaining gel bands were dried by speed-vacuum. 10 mM dithiothreitol (DTT) was added to each band and incubated at 56° C. for 45 min. DTT was removed and sample brought to room temperature (RT). Iodoacetamide (55 mM) was added to each sample and incubated at RT for 30 min in dark. Iodoacetamide was removed and 100 mM AMBIC was added and bands were incubated for 5 min. An equal volume of ACN was added to make a 1:1 solution and incubated for 15 min. The ACN/AMBIC solution was removed and bands were dried by speed-vacuum. Bands were digested with trypsin (400 ng/band) in 50 mM AMBIC and incubated on ice for 45 min. Tryptic solution was removed and 50 mM AMBIC was added to each band and incubated overnight at 37° C. to complete digestion. Digests were acidified using 10% trifluoroacetic acid (TFA). Supernatant was saved. Band was covered with TFA:ACN (0.1%:60%) and sonicated at 20° C. water bath for 30 min. Supernatant was combined with previous fraction. Sampled were speed vacuumed to a final volume of 10 μL prior to LC-MS/MS analysis on an LTQ Orbitrap Velos mass spectrometer as described below.
LC-MS/MS analysis of in-gel trypsin digested-proteins (Shevchenko et al., 1996) was carried out using a LTQ Orbitrap Velos mass spectrometer (Thermo Fisher Scientific, San Jose, Calif.) equipped with an Advion nanomate ESI source (Advion, Ithaca, N.Y.), following ZipTip (Millipore, Billerica, Mass.) C18 sample clean-up according to the manufacturer's instructions. Peptides were eluted from a C18 precolumn (100-μm id×2 cm, Thermo Fisher Scientific) onto an analytical column (75-μm ID×10 cm, C18, Thermo Fisher Scientific) using a 5-20% gradient of solvent B (acetonitrile, 0.1% formic acid) over 65 minutes, followed by a 20-35% gradient of solvent B over 25 minutes, all at a flow rate of 400 nl/min. Solvent A consisted of water and 0.1% formic acid. Data dependent scanning was performed by the Xcalibur v 2.1.0 software (Andon et al., 2002) using a survey mass scan at 60,000 resolution in the Orbitrap analyzer scanning m/z 350-1600, followed by collision-induced dissociation (CID) tandem mass spectrometry (MS/MS) of the fourteen most intense ions in the linear ion trap analyzer. […]

T1 sequence (P00747 20-810 limits assumed): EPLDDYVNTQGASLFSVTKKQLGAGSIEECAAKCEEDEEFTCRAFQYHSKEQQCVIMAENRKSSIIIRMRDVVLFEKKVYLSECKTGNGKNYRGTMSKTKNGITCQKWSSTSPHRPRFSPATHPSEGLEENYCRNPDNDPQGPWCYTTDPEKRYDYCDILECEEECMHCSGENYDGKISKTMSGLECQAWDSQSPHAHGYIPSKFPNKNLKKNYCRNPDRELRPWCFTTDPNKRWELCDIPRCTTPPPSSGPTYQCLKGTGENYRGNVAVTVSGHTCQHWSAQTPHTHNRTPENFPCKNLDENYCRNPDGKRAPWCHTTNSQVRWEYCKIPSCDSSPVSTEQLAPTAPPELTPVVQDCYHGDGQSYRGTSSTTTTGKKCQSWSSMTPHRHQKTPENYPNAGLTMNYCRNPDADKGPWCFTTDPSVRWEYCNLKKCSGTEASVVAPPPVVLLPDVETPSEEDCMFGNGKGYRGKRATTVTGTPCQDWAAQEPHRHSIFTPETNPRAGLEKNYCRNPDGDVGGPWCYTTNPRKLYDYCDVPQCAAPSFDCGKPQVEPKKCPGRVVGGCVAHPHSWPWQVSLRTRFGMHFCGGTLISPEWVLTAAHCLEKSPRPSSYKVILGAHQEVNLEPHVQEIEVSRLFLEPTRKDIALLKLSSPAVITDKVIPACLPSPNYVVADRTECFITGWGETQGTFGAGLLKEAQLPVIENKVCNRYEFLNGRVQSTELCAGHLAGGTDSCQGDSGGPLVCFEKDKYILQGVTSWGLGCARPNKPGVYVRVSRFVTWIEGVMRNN

For CC(=O)C=O [MG, Methylglyoxal], the “Spectra Observed” value (site 312, MG-DH, RAPWC(+57)HTTNSQVR) was 10, the “Spectra Observed” value (site 312, MG-HI, RAPWC(+57)HTTNSQVR) was 8 and the “Spectra Observed” value (site 324, MG-DH, RAPWC(+57)HTTNSQVRWEYC(+57)K) was 4. The “Spectra Observed” value (site 324, MG-HI, APWC(+57)HTTN SQVRWEYC(+57)K) was 3, the “Spectra Observed” value (site 324, MG-HI, RAPWC(+57)HTTNSQVRWEYC(+57)K) was 7 and the “Spectra Observed” value (site 389, MG-DH, C(+57)QSWSSMTPHRHQK) was 2. For the same compound, the “Spectra Observed” value (site 389, MG-DH, KC(+57)QSWSSMTPHRHQK) was 1, the “Spectra Observed” value (site 389, MG-HI, C(+57)QSWSSMTPHRHQK) was 4 and the “Spectra Observed” value (site 389, MG-HI, KC(+57)QSWSSMTPHRHQK) was 1. For the same compound, the “Spectra Observed” value (site 474, MG-DH, GKRATTVTGTPC(+57)QDWAAQEPHR) was 1, the “Spectra Observed” value (site 474, MG-DH, RATTVTGTPC(+57)QDWAAQEPHR) was 3 and the “Spectra Observed” value (site 474, MG-HI, GKRATTVTGTPC(+57)QDWAAQEPHR) was 4. The “Spectra Observed” value (site 474, MG-HI, RATTVTGTPC(+57)QDWAAQEPHR) was 3, the “Spectra Observed” value (site 493, MG-DH, ATTVTGTPC(+57)QDWAAQEPHRHSIFTPETNPR) was 4 and the “Spectra Observed” value (site 493, MG-DH, RATTVTGPC(+57)QDWAAQEPHRHSIFTPETNPR) was 3. For the same compound, the “Spectra Observed” value (site 493, MG-HI, ATTVTGTPC(+57)QDWAAQEPHRHSIFTPETNPR) was 6, the “Spectra Observed” value (site 493, MG-HI, RATTVTGPC(+57)QDWAAQEPHRHSIFTPETNPR) was 4 and the “Spectra Observed” value (site 504, MG-DH, HSIFTPETNPRAGLEK) was 9. For the same compound, the “Spectra Observed” value (site 504, MG-HI, HSIFTPETNPRAGLEK) was 16, the “Spectra Observed” value (site 530, MG-DH, NPDGDVGGPWC(+57)YTTNPRK) was 9 and the “Spectra Observed” value (site 530, MG-HI, NPDGDVGGPWC(+57)YTTNPRK) was 12. The “Spectra Observed” value (site 530, MG-HI, NYC(+57)RNPDGDVGGPWC(+57)YTTNPRK) was 3, the “Spectra Observed” value (site 561, MG-DH, C(+57)PGRVVGGC(+57)VAHPHSWPWQVSLR) was 5 and the “Spectra Observed” value (site 561, MG-DH, CPGRVVGGCVAHPHSWPWQVSLR) was 1. For the same compound, the “Spectra Observed” value (site 561, MG-DH, KC(+57)PGRVVGGC(+57)VAHPHSWPWQVSLR) was 10, the “Spectra Observed” value (site 561, MG-DH, KCPGRVVGGCVAHPHSWPWQVSLR) was 1 and the “Spectra Observed” value (site 561, MG-HI, C(+57)PGRVVGGC(+57)VAHPHSWPWQVSLR) was 5. For the same compound, the “Spectra Observed” value (site 561, MG-HI, KC(+57)PGRVVGGC(+57)VAHPHSWPWQVSLR) was 12, the “Spectra Observed” value (site 582, MG-DH, TRFGMHFC(+57)GGTLISPEWVLTAAHC(+57)LEK) was 1 and the “Spectra Observed” value (site 582, MG-HI, TRFGM(+16)HFC(+57)GGTLISPEWVLTAAHC(+57)LEK) was 1. The “Spectra Observed” value (site 582, MG-HI, TRFGMHFC(+57)GGTLISPEWVLTAAHC(+57)LEK) was 1, the “Spectra Observed” value (site 644, MG-HI, LFLEPTRK) was 2 and the “Spectra Observed” value (site 712, MG-DH, VC(+57)NRYEFLNGR) was 5. The “Spectra Observed” value (site 712, MG-HI, VC(+57)NRYEFLNGR) was 4, the “Spectra Observed” value (site 767, MG-DH, DKYILQGVTSWGLGC(+57)ARPNKPGVYVR) was 8 and the “Spectra Observed” value (site 767, MG-DH, YILQGVTSWGLGC(+57)ARPNKPGVYVR) was 6. For the same compound, the “Spectra Observed” value (site 767, MG-HI, DKYILQGVTSWGLGC(+57)ARPNKPGVYVR) was 11, the “Spectra Observed” value (site 767, MG-HI, YILQGVTSWGLGC(+57)ARPNKPGVYVR) was 6 and the “Spectra Observed” value (site 779, MG-DH, VSRFVTWIEGVM(+16)R) was 5. The “Spectra Observed” value (site 779, MG-DH, VSRFVTWIEGVMR) was 2, the “Spectra Observed” value (site 779, MG-HI, VSRFVTWIEGVM(+16)R) was 9 and the “Spectra Observed” value (site 779, MG-HI, VSRFVTWIEGVMR) was 4. For the same compound, the “Spectra Observed” value (site 789, MG-DH, FVTWIEGVM(+16)RNN) was 6, the “Spectra Observed” value (site 789, MG-DH, FVTWIEGVMRNN) was 13 and the “Spectra Observed” value (site 789, MG-HI, FVTWIEGVM(+16)RNN) was 10. For the same compound, the “Spectra Observed” value (site 789, MG-HI, FVTWIEGVMRNN) was 14, the “Spectra Observed” value (sites 115/117, MG-DH, MG-HI, WSSTSPHRPRFSPATHPSEGLEENYC(+57)R) was 2 and the “Spectra Observed” value (sites 115/117, MG-DH, WSSTSPHRPRFSPATHPSEGLEENYC(+57)R) was 1. The “Spectra Observed” value (sites 115/117, MG-HI, WSSTSPHRPRFSPATHPSEGLEENYC(+57)R) was 3, the “Spectra Observed” value (sites 220/223, MG-DH, NPDRELRPWC(+57)FTTDPNKR) was 3 and the “Spectra Observed” value (sites 220/223, MG-HI, MG-DH, NPDRELRPWC(+57)FTTDPNKR) was 9. For the same compound, the “Spectra Observed” value (sites 220/223, MG-HI, NPDRELRPWC(+57)FTTDPNKR) was 8, the “Spectra Observed” value (sites 312/324, MG-DH, MG-HI, RAPWC(+57)HTTNSQVRWEYC(+57)K) was 7 and the “Spectra Observed” value (sites 312/324, MG-DH, RAPWC(+57)HTTNSQVRWEYC(+57)K) was 3. For the same compound, the “Spectra Observed” value (sites 312/324, MG-HI, RAPWC(+57)HTTNSQVRWEYC(+57)K) was 2, the “Spectra Observed” value (sites 474/493, MG-DH, MG-HI, RATTVTGTPCQDWAAQEPHRHSIFTPETNPR) was 1 and the “Spectra Observed” value (sites 474/493, MG-HI, RATTVTGTPC(+57)QDWAAQEPHRHSIFTPETNPR) was 1. The “Spectra Observed” value (sites 489/504, MG-HI, MG-DH, ATTVTGTPC(+57)QDWAAQEPHRHSIFTPETNPRAGLEK) was 1, the “Spectra Observed” value (sites 779/789, MG-DH, VSRFVTWIEGVM(+16)RNN) was 1 and the “Spectra Observed” value (sites 779/789, MG-HI, MG-DH, VSRFVTWIEGVM(+16)RNN) was 3. The “Spectra Observed” value (sites 779/789, MG-HI, VSRFVTWIEGVM(+16)RNN) was 3.
